RP-LC retention time data for 80 compounds are collected here from the METLIN SMRT retention time set (Domingo-Almenara et al. 2019).

The data set can be described thus: gradient 5% acetonitrile 3 min, to 50% in 2 min, to 85% in 15 min, held 3 min, 100 µL/min. Particulars: column: Zorbax Extend-C18 2.1 x 50 mm; eluents: water / acetonitrile, 0.1% formic acid. The method, boiled down:
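Values are retention times taken from adduct peaks that software picked and an analyst inspected. The pure standards were run as mixtures of ~100 molecules on HPLC linked to a quadrupole time-of-flight mass spectrometer, in positive and negative ionization mode. A Zorbax Extend-C18 column (2.1 × 50 mm, 1.8 μm) was used at 100 μL/min with water and acetonitrile, each including 0.1% formic acid.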
Compound `O=C1Cc2cc(NC(=O)NC(c3ccccc3)c3ccccc3)ccc2N1` registered an RP-LC retention time of 706 s.
The same measure for `O=C(Cn1c(=O)c2cccn2c2ccccc21)NCc1cccs1`: 763 s; for `CC(=O)NC(C)C(=O)N1CCC(CCOc2cccnc2)CC1` (stereo not given): 567 s.
The figure for `CN1CCC(NC(=O)C2CCc3sc(C(=O)N4CCOCC4)cc3C2)CC1` (stereo not given) is 606 s; for `CCOc1ccc(N2CC(NC(=O)NCCc3ccc(S(N)(=O)=O)cc3)CC2=O)cc1` (stereo not given) it is 617 s; for `CC(C)N1CCC(CC(=O)N2CCc3c(c(-c4nc(-c5ccccc5)no4)nn3C)C2)CC1` it is 654 s.
The same measure for `Cc1noc(C)c1-c1ccc(S(=O)(=O)Nc2ccc(F)c(Cl)c2)cc1`: 969 s; for `NCCc1nc(-c2ccccc2)cs1`: 550 s.
Compound `Cc1cccc(-c2noc(Cn3ncn4nc(-c5ccc(C)cc5C)cc4c3=O)n2)c1` showed an RP-LC retention time of 878 s.
The same measure for `CC(=O)c1cccc(NC(=O)C2Oc3ccccc3NC2=O)c1` (stereo not given): 702 s; for `Cc1ccc(NC(=O)Cn2c(=O)n(-c3ccc(F)cc3)c(=O)c3c2cc(C)n3C)c(C)c1`: 879 s.
The same measure for `CNS(=O)(=O)c1cc(-c2nnc(-c3ccc(OC)c(OC)c3)o2)ccc1C`: 779 s; for `Cc1occc1C(=O)Nc1nc(-c2ccc(CC(C)C)cc2)cs1`: 1350 s; for `CCCN1CCN(C(=O)Cn2nc(C)c3sc(CC)nc3c2=O)CC1`: 577 s.
As for `O=C(c1cnccn1)N1CCC(c2noc(C3CC3)n2)C1` (stereo not given), the RP-LC retention time is 646 s.
`CCc1cc(=O)n(CC(=O)Nc2cccc(SC)c2)c(N2CCOCC2)n1` registered an RP-LC retention time of 846 s.
The same measure for `Cc1nn2c(CNC(=O)c3ccccc3Br)c(C)nc2s1`: 610 s.
Turning to `COC(=O)c1c(N)n(CCc2ccccc2)c2nc3ccccc3nc12`, the RP-LC retention time is 711 s.
`COc1ccc(CCNc2nc(-c3ccc(OC)c(OC)c3)cs2)cc1OC`: the RP-LC retention time was 728 s.
The same measure for `O=C(Nc1cnc(N2CCCC2)nc1)c1ccc(F)c(F)c1`: 748 s; for `COc1cccc(C(=O)N2CCC3(CC2)NC(=O)c2ccccc2N3C)c1`: 718 s; for `Cc1noc(-c2nn(C)c3c2CN(C(=O)c2cc4c(s2)CCCC4)CC3)n1`: 882 s.
The same measure for `Cn1cc(C(=O)N2CCN(c3ccccn3)CC2)c2cccnc21`: 566 s; for `CCOc1ccc(S(=O)(=O)N2CCC(C(=O)NCCCO)CC2)cc1C`: 707 s; for `CN1c2cc(F)ccc2C(=O)NC12CCN(C(=O)Cc1ccccc1Cl)CC2`: 783 s.
The same measure for `CCOCCOC1CCN(C(=O)c2ccco2)CC1`: 667 s.
In the case of `Cc1ccc(CNC(=O)Cc2csc3nc(-c4cccc(Br)c4)cn23)cc1`, the RP-LC retention time was 963 s.
The same measure for `CC(=O)c1cccc(NC(=O)N2CCN(c3nc4ccccc4n3C)CC2)c1`: 566 s; for `CSc1cccc(NC(=O)C2CCCN(c3cnc4nc(C)c(C)nc4c3)C2)c1` (stereo not given): 807 s; for `CCCCCN(CC(=O)N1CCNCC1)C(=O)c1cccc(Br)c1`: 664 s.
`COc1ccc(-c2nnc(COc3cccc(NC(=O)C(NC(=O)c4ccco4)C(C)C)c3)o2)cc1` (stereo not given) came in with an RP-LC retention time of 1010 s.
Take `Cc1ccc(-n2nc(N3CCCC(C(=O)NCc4ccccc4F)C3)ccc2=O)cc1Cl` (stereo not given): the RP-LC retention time came to 942 s.
The figure for `COc1ccc(-c2cn3c(CC(=O)NCc4cccs4)csc3n2)cc1OC` is 678 s.
The figure for `COc1cccc(C2Nc3ccccc3NC3=C2C(=O)CC(C)(C)C3)c1O` (stereo not given) is 686 s; for `CNC(=O)[C@H]1O[C@@H](n2cnc3c(N)ncnc32)C(O)[C@H]1O` (stereo not given in full) it is 621 s; for `CCc1nnc(NC(=O)C2CCCN(c3ncnc4c3nc3n4CCCCC3)C2)s1` (stereo not given) it is 724 s.
In the case of `O=C(Cc1ccccc1)N1CCN(c2nc3cccnc3o2)CC1`, the RP-LC retention time was found to be 686 s.
The same measure for `COc1ccc(-c2ncc3c(n2)CCN(S(=O)(=O)c2ccccc2C)C3)cc1`: 1070 s.
The figure for `Nc1nnc(SCc2nnc(-c3cccc(F)c3)o2)s1` is 646 s; for `Cc1ccc(CNC(=O)C2(C)Cn3nc(C(=O)N4CCOCC4)cc3C(=O)N2C)cc1` (stereo not given) it is 662 s; for `Cc1ccc(C2=NC3(CCN(C(=O)c4ccn[nH]4)CC3)ON2)cc1` it is 680 s.
The same measure for `N#CCNC(=O)C1CC(=O)N(CCc2c[nH]c3ccc(F)cc23)C1` (stereo not given): 661 s.
The compound `COc1cc2c(cc1OC)C(=O)Cc1ccc3c(c1CN(C)CC2)OCO3` gave an RP-LC retention time of 672 s.
`O=C(NCc1ccccc1)C1CCc2nc(N3CCOCC3)ncc2C1` (stereo not given): the RP-LC retention time stood at 696 s.
The figure for `Cc1ccc(-n2nc(N3CCN(C(=O)Nc4ccccc4Cl)CC3)ccc2=O)cc1` is 833 s; for `Cc1ccc(CCC(=O)Nc2cccc3ccccc23)o1` it is 847 s.
The compound `Cc1nc(-c2ccncc2)cc2nn(CC(=O)NCc3ccccc3)c(=O)n12` displayed an RP-LC retention time of 697 s.
The same measure for `O=C(NCc1ccco1)C1CCN(c2ccc3nnc(-c4ccccc4F)n3n2)CC1`: 708 s; for `CCCc1nc(NCc2ccccn2)ncc1C(=O)O`: 571 s.
The same measure for `COc1ccccc1N1CCN(Cc2nc(-c3ccc(N4CCCCC4)nc3)no2)CC1`: 757 s; for `COc1ccc(NC(=O)N2CCCC2c2nc(-c3cccc(Cl)c3)no2)c(OC)c1` (stereo not given): 1070 s.
The figure for `CCOc1ccc(NC(=O)Cn2cnc3nc(N4CCCC(C(=O)NC)C4)sc3c2=O)cc1` (stereo not given) is 666 s; for `C#Cc1cccc(NC(=O)c2ccc(Cl)cc2Cl)c1` it is 1060 s.
Consider `COC(=O)c1cc2c(=O)n(Cc3ccccn3)ccc2nc1C`, for which the RP-LC retention time came out at 638 s.
The same measure for `O=C(Nc1nccs1)c1ccccc1OCc1nc(-c2ccccc2)no1`: 953 s; for `C=CCNC(=O)c1cn(-c2cc(-c3nc(C(C)C)no3)ccn2)cn1`: 820 s.
On to `CCN(CC)c1nc2cc(C(=O)NCCC(C)C)ccc2c(=O)n1-c1ccccc1`, for which the RP-LC retention time came out at 1090 s.
The same measure for `CCC(C)NC(=O)c1ccc2c(c1)N(C(=O)NC)CC2` (stereo not given): 652 s; for `COc1cc(O)ccc1-c1nc2ccc(Br)cn2c1Nc1ccccc1C`: 736 s.
The same measure for `CC1=C(c2ccc(Cl)cc2)S(=O)(=O)N=C1N1CCCN(C(=O)c2cccnc2)CC1`: 701 s; for `COc1ccc(N2CC(c3nc(-c4cccc(-c5ccnn5C)c4)no3)CC2=O)cc1` (stereo not given): 844 s.
The same measure for `O=C(NCc1ccco1)Nc1cccc(-c2noc(C3CCC3)n2)c1`: 912 s.
`Cc1ccc(C)c(NC(=O)C(=O)NCC(c2ccc3c(c2)OCO3)N2CCN(C)CC2)c1` (stereo not given) gave an RP-LC retention time of 702 s.
The figure for `O=c1ccn(-c2ccc(Cl)cc2)nc1-c1nc(-c2ccccc2OCc2ccccc2)no1` is 845 s.
The figure for `CSc1ncccc1C(=O)NCc1cc(-c2ccc3c(c2)OCCO3)on1` is 748 s; for `CN1CCCc2cc(C(CNC(=O)C(=O)NCc3ccc4c(c3)OCO4)N3CCCC3)ccc21` (stereo not given) it is 709 s.
The figure for `O=C(Cc1ccccc1Cl)N1CCN(c2cc(-c3ccccc3)[nH]n2)CC1` is 828 s.
Turning to `O=C(CCC(=O)N1CC2CCCN2c2ccccc21)NCc1ccccn1` (stereo not given), the RP-LC retention time worked out at 639 s.
The same measure for `CCn1c(=O)c(N2CCCC(C(=O)N3CCN(c4cccc(C)c4C)CC3)C2)nc2ccccc21` (stereo not given): 1350 s; for `O=C(NCc1ccco1)C1CCN(c2ccc(=O)n(-c3cccc(Cl)c3)n2)CC1`: 785 s.
The figure for `Cn1nccc1-c1cccc(-c2noc(C3(c4ccccc4)CC3)n2)c1` is 1150 s; for `COc1ccc(OC)c(S(=O)(=O)N2CCc3c(c(-c4nnc(-c5ccccc5)o4)nn3C)C2)c1` it is 912 s.
The figure for `O=C(NCc1ccc(Br)cc1)c1ccc(=O)n(CCN2CCCC2)c1` is 630 s.
Consider `CS(=O)(=O)Nc1ccc(C2(C(=O)NCc3cccs3)CCCCC2)cc1`, for which the RP-LC retention time came to 851 s.
In turn, `CN(Cc1ccccc1)C(=O)CN1c2ccc(F)cc2-c2ccccc2S1(=O)=O` showed an RP-LC retention time of 994 s.
The same measure for `O=C(NCCC1CCN(C(=O)Nc2cc(F)cc(F)c2)CC1)c1ccoc1`: 798 s; for `CN(C)Cc1c(C(=O)NCCOc2ccc(C(=O)NO)cc2)oc2ccccc12`: 628 s.
The same measure for `CCS(=O)(=O)Nc1ccc(C2(C(=O)NC(C)c3ccccc3)CCCCC2)cc1` (stereo not given): 976 s.
In turn, `O=C1C2N=NN(Cc3nc(-c4ccccc4Br)no3)C2C(=O)N1c1ccc(F)cc1` (stereo not given) registered an RP-LC retention time of 960 s.
The compound `CC(=O)c1ccc(NC(=O)c2cc(C(F)(F)F)n(C)n2)cc1` gave an RP-LC retention time of 871 s.
